Measured values from US11066433B2, “Pentaaza macrocyclic ring complexes possessing oral bioavailability” (Galera Labs, LLC, priority 2015, dated 2021).

Columns and labels:
[1] = tested on: VEGFr inhibitor-induced pulmonary disease; details: ip, rat model; cited from earlier work
mouse cancer models = details: ip; cited from earlier work
[2] = Oral bioavailability by intraduodenal (id) dosing of minipigs, oil formulations, versus iv parent; format: in vivo, Gottingen minipig; details: id 10 mg/kg, 10% by weight formulation, vs iv 1 mg/kg parent, AUC0-24 h
Procedure: Compounds were screened for oral bioavailability by injecting the formulated prodrugs directly into the duodenum (intraduodenal or id administration) of the minipig test subjects, thus bypassing the acidic environment of the stomach and thereby eliminating potentially misleading oral bioavailability results that could arise from alteration of the test article drug in the acid environment of the stomach.
The studies were conducted at Xenometrics LLC (Stillwell, Kans.) and the id bioavailability was determined using various axial ligand derivative complexes of GC4419, GC4444, GC4403 and GC4401.
Male Gottingen minipigs (4-5 mo old, 9-12 kg weight) were purchased from Marshall BioResources and housed at Xenometrics. […] The distal end was exteriorized with a reusable accessible hub (see surgical details below). During a recovery period of at least 2 weeks the minipigs were handled daily to acclimate them to the test procedures, i.e., id dosing and blood collections. For each experiment, each minipig received a test article drug dissolved or suspended in an excipient vehicle. […] All dosing experiments were conducted in fasted animals. Food was withdrawn from the minipigs 16 hours before dosing. The minipigs had ad libitum access to water. Dosed minipigs were allowed access to food 6 hour after dosing. The test article was administered at a dose of 10 mg/kg parent drug in 0.1 mL/kg vehicle (e.g., 1.5 mL in 15 kg minipig) as a bolus injection (˜1 minute) via the id cannula. The actual amount of total test article drug administered varied with the formula weight of the prodrug. An equal volume of excipient vehicle was used to flush the cannula after the test article was administered. Approximately 6 hours later, corn oil was used to flush the cannula. After approximately 24 hours post-dose, the catheter was flushed with sterile saline solution and capped. At the following time-points 0.25, 0.5, 1, 2, 4, 8, 24 and 48 hour post-injection, 2 mL blood samples were collected by cranial vena cava puncture (4 mL Sodium heparin Vacutainer, 20 g 1.5″ needle) after the skin surface was wiped with ethanol. The minipig was placed in a sling in a recumbent position without anesthesia for the collection of blood samples. The minipigs were never used more than once per 7 days for experimentation. The blood samples were kept on ice until processed for plasma. Blood samples were centrifuged at 1200×g for ten minutes at 4° C. and plasma samples were transferred to 96 well plate tubes, capped and stored at −20° C. until shipment on dry ice to the analytical laboratory used for measuring the concentration of drug in the plasma. The concentration of the parent manganese pentaaza macrocylic ring complex (independent of the composition of the axial ligands) was measured in plasma using a validated HPLC/MS/MS method that is linear between 50 ng/mL and 20,000 ng/mL.
Maisine 35-1 is chemically defined to be the monoglyceride glyceryl monolinoleate (NF) and was supplied by Gattefosse, SAINT-PRIEST Cedex, France. Labrasol (NF) is chemically defined to be caprylocaproyl polyoxyl-8 glycerides NF and was supplied by Gattefosse, SAINT-PRIEST Cedex, France. Labrafil M 1944 CS is chemically defined to be oleoyl polyoxyl-6 glycerides (NF), and is available from Gattefosse, SAINT-PRIEST Cedex, France. The dosing solutions were all prepared using a four place analytical balance by weighing all components of each formulation so that 10% by weight of each formulation contained the test article drug substance and 90% by weight of the oil used for that formulation.
The bioanalytical method which is used to quantitate the parent Mn(II) macrocyclic ring ligand structure in plasma utilizes HPLC with MS/MS detection and monitors the presence of the monocationic [monoformatoMn(pentaazamacrocycle)]+ complex. […]

Solubility in water = format: physicochemical
oral mucositis = details: iv infusion, head-and-neck cancer patients, chemoradiation therapy; cited from earlier work
[3] = tested on: radiation-induced oral mucositis; details: ip, hamster oral mucositis model; cited from earlier work
[4] = tested on: colon of rats subjected to an experimental model of colitis; details: ip injection; cited from earlier work
[5] = tested on: collagen-induced arthritis; details: ip, rat collagen-induced arthritis; cited from earlier work
inflammation = details: ip, rat; cited from earlier work
[6] = tested on: lethal total body irradiation; details: ip, adult mice; cited from earlier work

| Mini-Pig BioA ([2]; base oil Capmul MCM) [%] | Mini-Pig BioA ([2]; base oil Labrafil M2125 CS) [%] | Mini-Pig BioA ([2]; base oil Maisine 35-1) [%] | Mini-Pig BioA ([2]; base oil Miglyol 812 N) [%] | Mini-Pig BioA ([2]; base oil Peceol) [%] | Molecule | other results |
| --- | --- | --- | --- | --- | --- | --- |
| 9 | 7 | 8 | 8 | 9 | [Cl][Mn][Cl].c1cc2nc(c1)CN[C@H]1CCCC[C@@H]1NCCN[C@H]1CCCC[C@@H]1NC2 [GC4419, reference compound] | pulmonary disease [1]: attenuate VEGFr inhibitor-induced pulmonary disease; anti-tumor activity of anti-metabolite and anti-mitotic agents (mouse cancer models): increase the anti-tumor activity; solubility in water (Solubility in water): relatively readily soluble in water; oral mucositis (oral mucositis): reduce oral mucositis |
| 34 |  |  |  |  | Manganese(II)bis-racemic-phenylglycinato[6R-Methyl(4aR,13aR,17aR,21 aR)-1,2,3,4,4a,5,6,12,13,13a,14,15,16,17,17a,18,19,20,21,21a-Eicosahydro-11,7-nitrilo-7H-dibenzo[b,h][1,4,7,10] tetraazacycloheptadecine-κN5, κN13, κN18, κN21, κN22]- [GC4716] |  |
| 9 |  |  |  |  | Manganese(II)bis-cyclohexanebutyrato[(4aS,13aS,17aS,21 aS)-1,2,3,4,4a,5,6,12,13,13a, 14,15,16,17,17a,18,19,20,21,21a-Eicosahydro-11,7-nitrilo-7H-dibenzo[b,h][1,4,7,10]tetraazacyclo-heptadecine-κN5, κN13, κN18, κN21, κN22]- [GC4707] |  |
| 15 | 16 | 8 |  | 11 | Manganese(II)bis-acetato[(4aS,13aS,17aS,21aS)-1,2,3,4,4a,5,6,12,13,13a,14,15,16,17,17a,18,19,20,21,21a-Eicosahydro-11,7-nitrilo-7H-dibenzo[b,h][1,4,7,10] tetraazacycloheptadecine-κN5, κN13, κN18, κN21, κN22]- [GC4701] |  |
| 33 |  |  | 32 |  | Manganese(II)bis-racemic-phenylglycinato[(4aS,13aS,17aS,21 aS)-1,2,3,4,4a,5,6,12,13,13a,14,15,16,17,17a,18,19,20,21,21a-Eicosahydro-11,7-nitrilo-7H-dibenzo[b,h][1,4,7,10] tetraazacycloheptadecine-κN5, κN13, κN18, κN21, κN22]- [GC4720] |  |

| Molecule | Mini-Pig BioA ([2]; base oil Capmul MCM) [%] | Mini-Pig BioA ([2]; base oil Labrafil M2125 CS) [%] | Mini-Pig BioA ([2]; base oil Maisine 35-1) [%] | Mini-Pig BioA ([2]; base oil Miglyol 812 N) [%] | Mini-Pig BioA ([2]; base oil Peceol) [%] | other results |
| --- | --- | --- | --- | --- | --- | --- |
| [Cl-].[Cl-].[Mn+2].c1cc2nc(c1)CN[C@@H]1CCCC[C@H]1NCCN[C@@H]1CCCC[C@H]1NC2 [GC4403] | 9 |  |  |  |  | radiation damage [3]: attenuate the radiation damage; injury to the colon [4]: significantly reduce the injury to the colon; joint disease [5]: prevent joint disease; inflammation (inflammation): inhibit inflammation; radiation damage [6]: attenuate the radiation damage |
